Laboratory results: patent publication EP0059817A1, “Serpentine, alstonine and sempervirine drugs for the specific inhibition of tumurous and cancerous cells” (priority 1981, dated 1982)

Tests used:
[1] = test system: Cellules primaires de reins de singe; test: cell culture cytotoxicity, normal cells; type: cell-based
Method: Des cultures de cellules saines (cellules primaires de reins de singe, cellules de lignée "Vero" et "SIRC") et des cultures de cellules cancéreuses (cellules K.B., cellules Hela, cellules Hep II et cellules L)ont reçu une dose de 200 Mg, soit de serpentine, soit d'alstonine, soit de sempervirine, par ml de culture.
(§1) L'effet cytotoxique spécifique, vis-à-vis des cellules tumorales utilisées, ne s'est jamais démenti au cours des très nombreuses expériences effectuées. Par contre, pour effectuer les cellules saines il a fallu des quantités d'alcaloides au moins dix fois plus grandes (plus de 2 mg/ml). (Les cultures de cellules in-vitro sans mycoplàsmes ont été effectuées dans les conditions classiques et en l'absence d'antibiotique qui pourraient fausser les résultats).
(§2) Les cellules cancéreuses et saines utilisées ne contenaient pas de mycoplasmes et le milieu de culture ne contenait pas d'antibiotique, ces derniers pouvant sensibiliser les cellules et par conséquent fausser les résultats.

[2] = test system: Cellules "Vero" (cellules de lignée); test: cell culture cytotoxicity, normal cells; type: cell-based; conditions: 150 µg dès l'ensemencement (per ml of culture)
Method: as §1, §2

[3] = test system: Cellules Hela; test: cell culture cytotoxicity, cancer cells; type: cell-based; conditions: 150 µg dès l'ensemencement (per ml of culture); culture de 3 jours
Method: as §1, §2

[4] = test system: Cellules K.B.; test: cell culture cytotoxicity, cancer cells; type: cell-based
Method: as §1, §2

[5] = test system: Cellules L; test: cell culture cytotoxicity, cancer cells; type: cell-based; conditions: 150 µg dès l'ensemencement (per ml of culture)
Method: as §1, §2

[6] = test system: cellules saines; test: cell culture cytotoxicity, healthy cells as a group; type: cell-based; conditions: 150 µg par ml de culture
Method: as §1, §2

[7] = test system: cellules cancéreuses; test: cell culture cytotoxicity, cancer cells as a group; type: cell-based; conditions: 150 µg par ml de culture
Method: as §1, §2

[8] = test system: lymphome YC 8; test: lymphoma YC 8 of the mouse, flavopéreirine; type: in vivo, souris BALB c; conditions: for survie (surviving mice/total): i.p. 2 x 150 µg per day, 10 days from 24 h after inoculation
Source text: En ce qui concerne l'activité de la flavopéreirine vis-à-vis du lumphome YC 8 de la souris, 30 souris BALB c de 19-20 g ont été inoculées par voie intrapéritonéale par 10^4 cellules ascitiques du lymphome YC 8 fraîchement prélevées et en pleine division chez la souris.
Dix souris ont été gardées comme témoins et 20 souris ont été traitées 24 heures après inoculation.
La flavopéreirine est dissoute en milieu physiologique tamponné (pH 7,65) et deux injections par voie intrapéritonéale et par jour sont administrées, (2 x 150 µg de flavopéreirine) et ceci pendant 10 jours consécutifs.

[9] = test system: ascite d'Ehrlich; test: Ehrlich ascites tumour in the mouse, flavopéreirine; type: in vivo, souris SWISS; conditions: for survie (surviving mice/total): i.p. 2 x 150 µg per day, 10 days from 24 h after inoculation
Method: En ce qui concerne l'activité de la flavopéreirine, vis-à-vis des tumeurs ascites d'Ehrlich de la souris, 30 souris SWISS de 20- 22 g ont été inoculées par voie intrapérito néale par 5 x 10^3 cellules ascite d'Ehrlich fraîchement prélevées.
Dix souris ont été gardées témoins et 20 souris ont été traitées 24 heures après l'inoculation par la flavopéreirine à raison de deux fois par jours (2 x 150 µg) par voie intrapéritonéale et pendant 10 jours consécutifs.
Les résultats du tableau VIII ci-après illustrent la survie des animaux pendant trois mois (une survie de plusieurs jours n'est pas prise en considération).

[10] = test system: virus de la vaccine; parameters: species or system lapin; conditions: in vivo
[11] = test system: virus de la grippe; type: in vivo, souris SWISS; conditions: doses comparables
[12] = 150 µg dès l'ensemencement (per ml of culture)

CCc1ccc2c3[nH]c4ccccc4c3cc[n+]2c1 [flavopéreirine]
destruction des cellules [1, 12]: - Pas de destruc-tion pendant 7 jours
destruction des cellules ([1]; 200 µg/ml, en culture de 7 jours dès l'ensemencement): Pas de destruction pendant 8 jours
destruction des cellules [2]: - Pas de destruc-tion pendant 7 jours
destruction des cellules [3]: - Destruction to-tale en 24-48 heures
destruction des cellules [4, 12]: - Destruction to-tale en 24-48 heures
destruction des cellules ([4]; 200 µg/ml, en culture de 3 jours dès l'ensemencement): Destruction totale en 24-48 heures
destruction des cellules [5]: - Destruction to-tale en 24-48 heures.
destruction des cellules saines [6]: ne sont pas détruites pendant les 7 jours d'observation
destruction des cellules cancéreuses [7]: détruites en 24-48 heures
survie (surviving mice/total) ([8]; day 0): 20/20
survie (surviving mice/total) ([8]; day 21): 20/20
survie (surviving mice/total) ([8]; day 60): 17/20
survie (surviving mice/total) ([8]; day 90): 17/20
state of the surviving mice ([8]; voie I.P., more than three months of observation): développement étant tout à fait normal
survie de trois mois, share of treated mice ([8]; voie sous-cutanée, 2 x 150 µg per day, 10 days): 70-80%
survie (surviving mice/total) ([9]; day 0): 20/20
survie (surviving mice/total) ([9]; day 24): 17/20
survie (surviving mice/total) ([9]; day 60): 11/20
survie (surviving mice/total) ([9]; day 90): 11/20
guérison (in words) ([9]; flavopéreirine alone, three months of observation, same results in souris BALB c): permet la guérison d'un important pourcentage de souris
appearance of papules [10]: empêche l'apparition et le développement des papules virales
activity against influenza compared with sempervirine [11]: résultats tout à fait comparables
